Assays:
[1] = target: T1, recombinant rat mGluR2 expressed in CHO cells (Rattus norvegicus, UniProt P31421); assay: [3H]-LY354740 binding on mGlu2 transfected CHO cell membranes (displacement binding assay)
T1 construct: expressed in transfected cells; vector pcDNA I-amp, construct pcD1mGR2
T1 sequence (P31421 19-872): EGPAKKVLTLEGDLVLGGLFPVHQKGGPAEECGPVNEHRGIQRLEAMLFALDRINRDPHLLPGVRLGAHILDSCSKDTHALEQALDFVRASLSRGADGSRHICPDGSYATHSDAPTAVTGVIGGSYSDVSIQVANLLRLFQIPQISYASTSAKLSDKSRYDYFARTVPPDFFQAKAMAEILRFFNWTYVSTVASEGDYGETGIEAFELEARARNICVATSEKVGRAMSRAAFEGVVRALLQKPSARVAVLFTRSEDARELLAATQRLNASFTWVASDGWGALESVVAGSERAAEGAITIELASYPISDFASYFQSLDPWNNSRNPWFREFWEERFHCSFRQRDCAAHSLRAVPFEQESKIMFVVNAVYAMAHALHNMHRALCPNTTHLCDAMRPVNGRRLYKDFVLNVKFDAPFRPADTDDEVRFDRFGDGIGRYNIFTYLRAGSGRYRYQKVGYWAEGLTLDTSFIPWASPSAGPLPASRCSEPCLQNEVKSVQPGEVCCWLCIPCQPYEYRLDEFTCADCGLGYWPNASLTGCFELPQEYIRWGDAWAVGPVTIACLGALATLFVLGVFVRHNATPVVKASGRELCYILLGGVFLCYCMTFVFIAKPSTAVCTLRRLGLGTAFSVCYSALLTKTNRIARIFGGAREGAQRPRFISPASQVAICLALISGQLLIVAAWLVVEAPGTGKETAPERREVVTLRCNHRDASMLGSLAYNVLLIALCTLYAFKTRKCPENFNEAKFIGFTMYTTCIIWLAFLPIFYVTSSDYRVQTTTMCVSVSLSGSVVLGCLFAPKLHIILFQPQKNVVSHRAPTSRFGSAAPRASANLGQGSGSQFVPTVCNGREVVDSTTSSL

SMILES | Ki [1] [nM] | melting point
CN(C)c1cc2c(cc1-c1cccc(F)c1F)NC(=O)CC(c1cccc(-n3ccnn3)c1)=N2 [Example 8, 8-(2,3-Difluoro-phenyl)-7-dimethylamino-4-(3-[1,2,3]triazol-1-yl-phenyl)-1,3-dihydro-benzo[b][1,4]diazepin-2-one] | 70 | 197 to 199 °C
CN(C)c1cc2c(cc1Cl)NC(=O)CC(c1cccc(-c3nc(CO)cs3)c1)=N2 [Example 19, 8-Chloro-7-dimethylamino-4-[3-(4-hydroxymethyl-thiazol-2-yl)-phenyl]-1,3-dihydro-benzo[b][1,4]diazepin-2-one] | 30 | 134 °C (dec.)
Cc1cc(-c2cccc(C3=Nc4cc(OCC(F)(F)F)c(-c5ccccc5F)cc4NC(=O)C3)c2)on1 [Example 24, 8-(2-Fluoro-phenyl)-4-[3-(3-methyl-isoxazol-5-yl)-phenyl]7-(2,2,2-trifluoro-ethoxy)-1,3-dihydro-benzo[b][1,4]diazepin-2-one] | 30 | 218 to 220 °C
CN(C)c1cc2c(cc1Cl)NC(=O)CC(c1cccc(-c3nc(CO)co3)c1)=N2 [Example 27, 8-Chloro-7-dimethylamino-4-[3-(4-hydroxymethyl-oxazol-2-yl)-phenyl]-1,3-dihydro-benzo[b][1,4]diazepin-2-one] | 39 | 193 to 195 °C
CCCN(C)c1cc2c(cc1Cl)NC(=O)CC(c1cccc(-n3nncc3CO)c1)=N2 [Example 29, 8-Chloro-7-(methyl-propyl-amino)-4-[3-(5-hydroxymethyl-[1,2,3]triazol-1-yl)-phenyl]-1,3-dihydro-benzo[b][1,4]diazepin-2-one] | 30 | 178 °C (dec.)
CCN(CC)c1cc2c(cc1Cl)NC(=O)CC(c1cccc(-n3nncc3CO)c1)=N2 [Example 30, 8-Chloro-7-(diethyl-amino)-4-[3-(5-hydroxymethyl-[1,2,3]triazol-1-yl)-phenyl]-1,3-dihydro-benzo[b][1,4]diazepin-2-one] | 44 | 208 °C (dec.)
CN(c1cc2c(cc1Cl)NC(=O)CC(c1cccc(-n3nncc3CO)c1)=N2)C1CC1 [Example 37, 8-Chloro-7-(cyclopropyl-methyl-amino)-4-[3-(5-hydroxymethyl-[1,2,3]triazol-1-yl)-phenyl]-1,3-dihydro-benzo[b][1,4]diazepin-2-one] | 160 | 
CN(C)c1cc2c(cc1Cl)NC(=O)CC(c1cccc(-n3cccn3)c1)=N2 [Example 52, 8-Chloro-7-dimethylamino-4-(3-pyrazol-1-yl-phenyl)-1,3-dihydro-benzo[b][1,4]diazepin-2-one] | 110 | 231 to 234 °C
CN(C)c1cc2c(cc1C(F)(F)F)NC(=O)CC(c1cccc(-c3cc(CN4CCOCC4)no3)c1)=N2 [Example 54, 7-Dimethylamino-4-[3-(3-morpholin-4-ylmethyl-isoxazol-5-yl)-phenyl]-8-trifluoromethyl-1,3-dihydro-benzo[b][1,4]diazepin-2-one] | 125 | 165 °C
CN(C)c1cc2c(cc1C(F)(F)F)NC(=O)CC(c1cccc(-n3nncc3CNC3CC3)c1)=N2 [Example 82, 4-[3-(5-Cyclopropylaminomethyl-[1,2,3]triazol-1-yl)-phenyl]-7-dimethylamino-8-trifluoromethyl-1,3-dihydro-benzo[b][1,4]diazepin-2-one] | 49 | 
CC(C)CN(C)c1cc2c(cc1Cl)NC(=O)CC(c1cccc(-n3ncnc3CO)c1)=N2 [Example 163, 8-Chloro-4-[3-(5-hydroxymethyl-[1,2,4]triazol-1-yl)-phenyl]-7-(isobutyl-methyl-amino)-1,3-dihydro-benzo[b][1,4]diazepin-2-one] | 89 | 195 °C
CCCN(C)c1cc2c(cc1C(F)(F)F)NC(=O)CC(c1cccc(-n3cncn3)c1)=N2 [Example 169] | 27 | 185 °C
Cc1nc(-c2cccc(C3=Nc4cc(N(C)C)c(C(F)(F)F)cc4NC(=O)C3)c2)co1 [Example 210, 7-Dimethylamino-4-[3-(2-methyl-oxazol-4-yl)-phenyl]-8-trifluoromethyl-1,3-dihydro-benzo[b][1,4]diazepin-2-one] |  | 192 to 193 °C
Cc1ocnc1-c1cccc(C2=Nc3cc(N(C)C)c(C(F)(F)F)cc3NC(=O)C2)c1 [Example 211, 7-Dimethylamino-4-[3-(5-methyl-oxazol-4-yl)-phenyl]-8-trifluoromethyl-1,3-dihydro-benzo[b][1,4]diazepin-2-one] |  | 238 to 239 °C
Cc1scnc1-c1cccc(C2=Nc3cc(N(C)C)c(C(F)(F)F)cc3NC(=O)C2)c1 [Example 213, 7-Dimethylamino-4-[3-(5-methyl-thiazol-4-yl)-phenyl]-8-trifluoromethyl-1,3-dihydro-benzo[b][1,4]diazepin-2-one] |  | 214 to 215 °C
Cc1nc(-c2cccc(C3=Nc4cc(N(C)C)c(C(F)(F)F)cc4NC(=O)C3)c2)c(C)s1 [Example 214, 7-Dimethylamino-4-[3-(2,5-dimethyl-thiazol-4-yl)-phenyl]-8-trifluoromethyl-1,3-dihydro-benzo[b][1,4]diazepin-2-one] |  | 208 to 209 °C
Cc1sc(CO)nc1-c1cccc(C2=Nc3cc(N(C)C)c(C(F)(F)F)cc3NC(=O)C2)c1 [Example 216, 7-Dimethylamino-4-[3-(2-hydroxymethyl-5-methyl-thiazol-4-yl)-phenyl]-8-trifluoromethyl-1,3-dihydro-benzo[b][1,4]diazepin-2-one] |  | 190 to 193 °C
CCCc1sc(CO)nc1-c1cccc(C2=Nc3cc(N(C)C)c(C(F)(F)F)cc3NC(=O)C2)c1 [Example 217, 7-Dimethylamino-4-[3-(2-hydroxymethyl-5-propyl-thiazol-4-yl)-phenyl]-8-trifluoromethyl-1,3-dihydro-benzo[b][1,4]diazepin-2-one] |  | 112 to 114 °C
Cc1nc(-c2cccc(C3=Nc4cc(N(C)C)c(C(F)(F)F)cc4NC(=O)C3)c2)c(CO)s1 [Example 218, 7-Dimethylamino-4-[3-(5-hydroxymethyl-2-methyl-thiazol-4-yl)-phenyl]-8-trifluoromethyl-1,3-dihydro-benzo[b][1,4]diazepin-2-one] |  | 226 to 227 °C
CC(C)c1nc(-c2cccc(C3=Nc4cc(N(C)C)c(C(F)(F)F)cc4NC(=O)C3)c2)c[nH]1 [Example 221, 7-Dimethylamino-4-[3-(2-isopropyl-1H-imidazol-4-yl)-phenyl]-8-trifluoromethyl-1,3-dihydro-benzo[b][1,4]diazepin-2-one] |  | 150 °C (dec.)
CN(C)c1cc2c(cc1Cl)NC(=O)CC(c1cccc(-c3nnc(CCO)s3)c1)=N2 [Example 223, 8-Chloro-7-dimethylamino-4-{3-[5-(2-hydroxy-ethyl)-[1,3,4]thiadiazol-2-yl]-phenyl}-1,3-dihydro-benzo[b][1,4]diazepin-2-one] |  | 198 to 200 °C

Continued by falling Ki [1], values first:

Ki [1] [nM] | melting point | SMILES
25 | 182 °C | COCCN(C)c1cc2c(cc1Cl)NC(=O)CC(c1cccc(-c3cc(C)no3)c1)=N2 [Example 11]
25 | 195 °C | CCCN(C)c1cc2c(cc1C)NC(=O)CC(c1cccc(C#N)c1)=N2 [Example 92, 3-[7-Methyl-8-(methyl-propyl-amino)-4-oxo-4,5-dihydro-3H-benzo[b][1,4]diazepin-2-yl]-benzonitrile]
23 | 225 °C | CN(C)c1cc2c(cc1Cl)NC(=O)CC(c1cccc(-c3ccnn3C)c1)=N2 [Example 16, 8-Chloro-7-dimethylamino-4-[3-(2-methyl-2H-pyrazol-3-yl)-phenyl]-1,3-dihydro-benzo[b][1,4]diazepin-2-one]
20 | 201 °C | CC(C)CN(C)c1cc2c(cc1Cl)NC(=O)CC(c1cccc(-n3nncc3CO)c1)=N2 [Example 101, 8-Chloro-4-[3-(5-hydroxymethyl-[1,2,3]triazol-1-yl)-phenyl]-7-(isobutyl-methyl-amino)-1,3-dihydro-benzo[b][1,4]diazepin-2-one]
19 | 193 to 197 °C | O=C1CC(c2cccc(-n3nncc3CO)c2)=Nc2cc(N3CCCC3)c(Cl)cc2N1 [Example 32, 8-Chloro-4-[3-(5-hydroxymethyl-[1,2,3]triazol-1-yl)-phenyl]-7-pyrrolidin-1-yl-1,3-dihydro-benzo[b][1,4]diazepin-2-one]
19 | 192 °C | CSc1nccn1-c1cccc(C2=Nc3cc(N(C)C)c(C(F)(F)F)cc3NC(=O)C2)c1 [Example 71, 7-Dimethylamino-4-[3-(2-methylsulfanyl-imidazol-1-yl)-phenyl]-8-trifluoromethyl-1,3-dihydro-benzo[b][1,4]diazepin-2-one]
15 | 169 °C | CCCN(C)c1cc2c(cc1Cl)NC(=O)CC(c1cccc(-n3nncc3CN3CCC3)c1)=N2 [Example 122, 4-[3-(5-Azetidin-1-ylmethyl-[1,2,3]triazol-1-yl)-phenyl]-8-chloro-7-(methyl-propyl-amino)-1,3-dihydro-benzo[b][1,4]diazepin-2-one]
9 | 191 °C | CCN(CC)c1cc2c(cc1C#N)NC(=O)CC(c1cccc(-c3cc(C)no3)c1)=N2 [Example 107, 8-Diethylamino-2-[3-(3-methyl-isoxazol-5-yl)-phenyl]-4-oxo-4,5-dihydro-3H-benzo[b][1,4]diazepine-7-carbonitrile]
5 | 155 °C | CN(CC1CC1)c1cc2c(cc1C(F)(F)F)NC(=O)CC(c1ccnc(C#N)c1)=N2 [Example 78, 4-[8-(Cyclopropylmethyl-methyl-amino)-4-oxo-7-trifluoromethyl-4,5-dihydro-3H-benzo[b][1,4]diazepin-2-yl]-pyridine-2-carbonitrile]
4 | 252 to 255 °C | N#Cc1cc(C2=Nc3cc(OCC(F)(F)F)c(C(F)(F)F)cc3NC(=O)C2)ccn1 [Example 88, 4-[4-Oxo-8-(2,2,2-trifluoro-ethoxy)-7-trifluoromethyl-4,5-dihydro-3H-benzo[b][1,4]diazepin-2-yl]-pyridine-2-carbonitrile]

From patent US6544985B2, “Dihydro-benzo [b][1,4]diazepin-2-one derivatives” (Hoffman-La Roche Inc., priority 2001, dated 2003)
